Experiment [1] deals with T1, Acetylcholine receptor subunit delta (Homo sapiens, UniProt Q07001). Nature of the experiment: Compound was evaluated for inhibitory activity against human embryonic muscle type Nicotinic acetylcholine receptor specifically delta-subunit expressed in TE-671 cell (at holding potential -50 mV). It counts as cell-based.
Experiment [2] addresses T1, Acetylcholine receptor subunit delta. Nature of the experiment: Compound was evaluated for inhibitory activity against human embryonic muscle type Nicotinic acetylcholine receptor specifically delta-subunit expressed in TE-671 cell (at holding potential -100 mV). It counts as cell-based.

The structures appear in SMILES notation. pIC50: −log10 of the molar value.

T1 sequence (Q07001 whole entry): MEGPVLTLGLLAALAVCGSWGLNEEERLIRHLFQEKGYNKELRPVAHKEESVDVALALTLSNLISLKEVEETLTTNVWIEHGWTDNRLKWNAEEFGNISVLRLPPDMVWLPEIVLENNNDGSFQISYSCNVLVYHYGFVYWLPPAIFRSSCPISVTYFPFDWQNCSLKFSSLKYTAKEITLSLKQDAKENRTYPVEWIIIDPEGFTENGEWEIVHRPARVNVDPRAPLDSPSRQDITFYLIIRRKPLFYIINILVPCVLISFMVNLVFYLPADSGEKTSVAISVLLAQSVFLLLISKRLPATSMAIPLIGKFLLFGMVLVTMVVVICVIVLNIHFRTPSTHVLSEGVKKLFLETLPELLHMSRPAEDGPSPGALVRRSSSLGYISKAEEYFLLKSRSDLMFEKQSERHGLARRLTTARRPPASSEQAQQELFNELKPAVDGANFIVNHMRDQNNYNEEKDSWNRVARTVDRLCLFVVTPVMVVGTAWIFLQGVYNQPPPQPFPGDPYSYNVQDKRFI

Turning to `CCCC(=O)N[C@@H](Cc1ccc(O)cc1)C(=O)NCCCCCCCCCCCCN`, the negative-log IC50 (pIC50) in experiment [1] is 5.82; in experiment [2] it was 6.03.

As for `CCCC(=O)N[C@@H](Cc1ccc(O)cc1)C(=O)NCCCCCCCCCCCN`, the results for the pIC50 in experiment [1] and in experiment [2] were 6.24 and 6.34, respectively.

For the molecule `CCCC(=O)N[C@@H](Cc1ccc(O)cc1)C(=O)NCCCCCCCN`, the negative-log IC50 (pIC50) is 4.98 in experiment [1] and 5.26 in experiment [2].

Turning to `CCCC(=O)N[C@@H](Cc1ccc(O)cc1)C(=O)NCCCCCCCCN`, the pIC50 in experiment [1] is 5.01; in experiment [2], 5.30.

On to `CCCC(=O)N[C@@H](Cc1ccc(O)cc1)C(=O)NCCCCCCCCCCN`, for which the negative-log IC50 (pIC50) in experiment [1] was 5.06; in experiment [2], roughly 5.00.

Consider `CCCC(=O)N[C@@H](Cc1ccc(O)cc1)C(=O)NCCCCCCCCCN`, for which the pIC50 in experiment [1] is 4.88; in experiment [2] it was 4.82.

`CCCC(=O)N[C@@H](Cc1ccc(O)cc1)C(=O)NCCCNCCCCNCCCN` [PHILANTHOTOXIN 343] had a negative logarithm of the IC50 (pIC50) in experiment [2] of 4.12.
